Consider nine molecules from patent US12065428B2, “Anti-viral compounds” (Aligos Therapeutics, Inc., priority 2021, dated 2024).

Data set [1] concerns SARS-CoV-2. The following applies: cited from earlier work.
The target in data set [2] is 3CLpro (Severe acute respiratory syndrome coronavirus 2, UniProt P0DTD1). As to conditions: cited from earlier work.
The target of data set [3] is T1, human cathepsin L (Homo sapiens, UniProt P07711).
T1 construct: purchased R&D Systems
Nature of the data set: Cathepsin L assay (Z-FR-AMC fluorescence). The format is biochemical. As to conditions: 10 pM human cathepsin L, 30 mins preincubation; class symbols. In outline:
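Reactions began by adding 2 μM (final) Z-FR-AMC substrate to 10 pM human cathepsin L that had been preincubated 30 min with inhibitor. Kinetic AMC fluorescence at 355/460 nm over 30 min at 2-min intervals; four-parameter fitting gave IC50 values.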

Data set [4] addresses T2, SARS-Cov-2 3CLpro (Severe acute respiratory syndrome coronavirus 2, UniProt P0DTD1).
T2 construct: SARS-Cov-2 3CLpro and HRV3C Duplex Assay
Description: SARS-Cov-2 3CLpro and HRV3C duplex assay (SAMDI-MS): 3CLpro. Type of data set: biochemical.

The test system of data set [5] is SARS-CoV-2-GHB-03021/2020. Description: microbe, parasite or virus in culture. The format is cell-based. As to conditions: Severe acute respiratory syndrome coronavirus 2, Vero C1008, 96 h; read-out: VeroE6 + CP (EC50).
A short description of data set [6]: Cytotoxicity plates without OC43 virus in HeLa cells. Type of data set: cell-based. The following applies: human, HeLa cells (uninfected). The essentials: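 HeLa cells pretreated 4 h with serially diluted compounds, then infected with OC43 at a dose giving 80-90% viability loss and incubated 6 days at 33 °C. Viability by CellTiter-Glo luminescence; EC50 from four-parameter fit of CPE inhibition. Uninfected parallel plates gave cytotoxicity.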

The target of data set [7] is T3, HRV3C (Human rhinovirus 14, UniProt P03303).
T3 construct: SARS-Cov-2 3CLpro and HRV3C Duplex Assay
Description: biochemical. The following applies: read-out: HRV IC50.

Data set [8] deals with human beta-coronavirus OC43. Nature of the data set: OC43 coronavirus assay in HeLa cells (cytopathic effect, cell-titer-glo). Type of data set: cell-based.
Setting [9] is: 3CLpro, duplex assay, 30 mins preincubation, class symbols, read-out: SARS-Cov-2 IC50.
The mark [10] stands for this setting: HRV3C, duplex assay, 30 mins preincubation, class symbols.
[11] abbreviates: Betacoronavirus 1, 144 h, OC43 in HeLa cells, 6 days at 33° C., class symbols, read-out: EC50.

Where two headings read alike, the source gives them in different places.

T1 sequence (P07711 114-333): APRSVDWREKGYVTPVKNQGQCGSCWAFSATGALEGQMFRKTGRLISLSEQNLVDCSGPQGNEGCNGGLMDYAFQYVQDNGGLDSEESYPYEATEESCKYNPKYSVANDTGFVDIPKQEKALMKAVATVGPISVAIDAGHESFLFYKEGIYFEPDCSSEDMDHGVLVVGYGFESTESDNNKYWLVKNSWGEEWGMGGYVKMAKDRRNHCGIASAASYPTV
T3 sequence (P03303 1538-1719): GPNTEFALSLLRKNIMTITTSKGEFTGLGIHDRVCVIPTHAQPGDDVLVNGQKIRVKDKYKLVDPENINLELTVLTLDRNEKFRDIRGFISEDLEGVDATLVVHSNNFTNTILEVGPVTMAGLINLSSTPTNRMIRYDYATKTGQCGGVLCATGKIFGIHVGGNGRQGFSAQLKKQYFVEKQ

Turning to `CN1CCN(C(=O)N[C@@H](Cc2ccccc2)C(=O)N[C@H](/C=C/S(=O)(=O)c2ccccc2)CCc2ccccc2)CC1` [Example K117777], the “antiviral effect when TMPRSS2 was expressed” value in data set [1] (A549-ACE2 expressing TMPRSS2 (Steuten et al.)) was “abolished”. For the same molecule, the “inhibition of SARS-CoV-2” value in data set [1] (VeroE6, A549-ACE2 and/or HeLa-ACE2 (Mellott et al.)) is recorded as “potent inhibition”. In addition, the “inhibitory effect on the 3CLpro” value in data set [2] is “lacks an inhibitory effect”.

What is called IC50 is the concentration that gives 50% inhibition. The EC50 is the concentration at which the effect is half-maximal. One may read the CC50 as the concentration at which the toxic effect on the cells reaches its halfway point. Higher therefore signals better tolerance by the cells. Take `CN1CCN(c2ccc(C(=O)N3CCC4(CC4)C[C@H]3C(=O)N[C@@H](C[C@@H]3CCNC3=O)C(=O)C(=O)NC3CC3)cc2)CC1` [Example 13, (3S)—N-cyclopropyl-3-{[(5S)-6-[4-(4-methylpiperazin-1-yl)benzoyl]-6-azaspiro[2.5]octan-5-yl]formamido}-2-oxo-4-[(3S)-2-oxopyrrolidin-3-yl]butanamide]: the IC50 was 1 to 10 µM in data set [3], 0.2 to 2 µM in data set [4] (setting [9]) and more than 10 µM in data set [7]. Moreover, the EC50 in data set [5] was more than 50 µM; in data set [8] (Betacoronavirus 1, OC43, HeLa), more than 10 µM. Also, the CC50 at 6 days in data set [6] (class symbols) is not below 100 µM.

For the molecule `O=C(NC1CC1)C(=O)[C@H](C[C@@H]1CCNC1=O)NC(=O)[C@@H]1CC2(CCN1C(=O)c1cc3ccccc3n1C1CC1)CC2` [Example 8], the IC50 was not below 10 µM in data set [3], less than 0.02 µM in data set [4] (setting [9]) and 2 to 20 µM in data set [7] (setting [10]). Further, the EC50 is less than 1 µM in data set [5] and 0.1 to 1 µM in data set [8] (setting [11]). Moreover, the CC50 at 6 days in data set [6] (class symbols) was not below 100 µM.

Take `CC(C)(C)[C@H](NC(=O)C(F)(F)F)C(=O)N1CCC2(C[C@H]1C(=O)N[C@H](C#N)C[C@@H]1CCNC1=O)CC(F)(F)C2` [Compound 51, (S)—N—((S)-1-cyano-2-((S)-2-oxopyrrolidin-3-yl)ethyl)-7-((S)-3,3-dimethyl-2-(2,2,2-trifluoroacetamido)butanoyl)-2,2-difluoro-7-azaspiro[3.5]nonane-6-carboxamide]: the IC50 in data set [3] was not below 10 µM; in data set [4] (setting [9]), 0.2 to 2 µM; in data set [7], more than 10 µM. In addition, the EC50 in data set [5] and in data set [8] (setting [11]) was 1 to 10 µM each time. For the same molecule, in data set [6] (numeric bound, unit inferred), the CC50 at 6 days was more than 100 µM.

Turning to `CC(C)n1c(C(=O)N2CCC3(CC3)C[C@H]2C(=O)N[C@@H](C[C@@H]2CCNC2=O)C(=O)C(=O)NC2CC2)cc2ccccc21` [Compound 27], the IC50 in data set [3] was not below 10 µM; in data set [4] (setting [9]), less than 0.02 µM; in data set [7] (setting [10]), 0.2 to 2 µM. The EC50 is less than 1 µM in data set [5] and 0.1 to 1 µM in data set [8] (setting [11]). The molecule also showed a CC50 at 6 days in data set [6] (class symbols) not below 100 µM.

For the molecule `O=C(NC1CC1)C(=O)C(C[C@@H]1CCNC1=O)NC(=O)[C@@H]1CC2(CCN1C(=O)c1cnn(-c3ccccc3)n1)CC2` (stereo partly drawn) [Compound 24], the IC50 in data set [3] was not below 10 µM; in data set [4] (setting [9]), 0.2 to 2 µM; in data set [7] (setting [10]) it was 0.2 to 2 µM. The EC50 in data set [5] and in data set [8] (setting [11]) was 1 to 10 µM in each case. Besides, the CC50 at 6 days in data set [6] (class symbols) was not below 100 µM.

Consider `O=C(NC1CC1)C(=O)[C@H](C[C@@H]1CCNC1=O)NC(=O)[C@@H]1CC2(CCN1C(=O)[C@@H]1C[C@H]1c1ccccc1)CC2` [Compound 48], for which the IC50 lay within 1 to 10 µM in data set [3], 0.02 to 0.2 µM in data set [4] (setting [9]) and 0.2 to 2 µM in data set [7] (setting [10]). The EC50 was in the range of 1 to 10 µM in data set [5] and 0.1 to 1 µM in data set [8] (setting [11]). This molecule showed a CC50 at 6 days in data set [6] (numeric bound, unit inferred) of more than 100 µM.

In the case of `Cn1c(C(=O)N2CCC3(CC3)C[C@H]2C(=O)N[C@@H](C[C@@H]2CCNC2=O)C(=O)CO)cc2ccccc21` [Example 2, (S)—N—((S)-4-hydroxy-3-oxo-1-((S)-2-oxopyrrolidin-3-yl)butan-2-yl)-6-(1-methyl-1H-indole-2-carbonyl)-6-azaspiro[2.5]octane-5-carboxamide], the figures for the IC50 in data set [3], in data set [4] (setting [9]) and in data set [7] were not below 10 µM, 0.02 to 0.2 µM and more than 10 µM, respectively. The EC50 in data set [5] and in data set [8] (setting [11]) was 1 to 10 µM in each case. The CC50 at 6 days in data set [6] (class symbols) is not below 100 µM.

As for `O=C(NC1CC1)C(=O)[C@H](C[C@@H]1CCNC1=O)NC(=O)[C@@H]1CC2(CCN1C(=O)c1ccc3c(c1)OCO3)CC2` [Compound 16, (3S)-3-{[(5S)-6-(2H-1,3-benzodioxole-5-carbonyl)-6-azaspiro[2.5]octan-5-yl]formamido}-N-cyclopropyl-2-oxo-4-[(3S)-2-oxopyrrolidin-3-yl]butanamide], the results for the IC50 in data set [3], in data set [4] and in data set [7] (setting [10]) were not below 10 µM, 0.02 to 0.2 µM and 2 to 20 µM, respectively. In addition, the EC50 in data set [5] and in data set [8] (setting [11]) was 1 to 10 µM throughout. In data set [6] (class symbols), this molecule registered a CC50 at 6 days not below 100 µM.
